Assay results taken from ChEMBL document CHEMBL5725682, “Therapeutic inhibitory compounds” (2018).

Legend:
[1] = In Vitro Contact Cellular Assay: The test compounds at various concentrations, also prepared by serial dilutions as described above, are added to the test wells. The volume of test compound added to each test well was 12.5 μL, to yield final concentrations of 20 μM, 5 μM, 1.25 μM, 312.5 nM, 78.125 nM, 19.531 nM, 4.883 nM, 1.221 nM, 0.305 nM, and 0.076 nM. Each test compound concentration was tested in duplicates.In addition to the inhibitor control and test wells, the 96 well assay plate includes positive control wells which contained the mixture of human plasma and ellagic acid without C1NH inhibitor or test compounds, and background wells which contained neither the mixture of human plasma and ellagic acid nor the test compounds. The total volume of liquid in positive control and background wells was brought up to 35 μL, using the assay buffer.The assay plate containing C1NH inhibitors and test compounds mixed with human plasma and ellagic acid and appropriate controls was incubated at 37° C. for 5 min. A 10 mM stock solution of substrate Z-FR-2-AMC was diluted to 133.2 μM in the assay buffer, and 15 μL of the diluted substrate was added to each well, to yield a final substrate concentration of 40 μM in each well. The reagents were mixed well by shaking the plate gently for 30 sec.The enzyme reaction was quantified by immediate kinetic reading of the assay plate using excitation/emission wavelengths of 330 nm/440 nm respectively. Fluorescence intensity was recorded for 60 min, using a time interval of 43 sec.The inhibition activity of the test compounds were evaluated using the EC50 values, calculated according to the dose-response curve of the test compounds, fitted using the log(inhibitor)−response (variable slope)¿ equation in GraphPadPrism software (GraphPad Software, Inc.).
Plasma kallikrein = Plasma kallikrein (Homo sapiens, UniProt P03952); assay: In Vitro Enzyme Inhibition of hPK: A 10 mM solution of the test compound was made in DMSO. […] A control tube containing only DMSO is included. […] 50 μL was removed from this mixture and placed into duplicate wells on a Microfluor 1Black U-bottom microtiter plate (Thermo Scientific). This plate was incubated for 5 minutes at 37° C. To each well, 50 μL of pre-warmed 2×PFR-AMC was added to start the enzymatic reaction. Cleavage of PFR-AMC was monitored in a Biotek Synergy H4 reader set at 37° C. Readings are taken every 43 seconds for 1 hour. […] The IC50 is calculated using the Gen5 (Biotek Instruments).
Sequence of Plasma kallikrein (P03952 20-390 limits assumed): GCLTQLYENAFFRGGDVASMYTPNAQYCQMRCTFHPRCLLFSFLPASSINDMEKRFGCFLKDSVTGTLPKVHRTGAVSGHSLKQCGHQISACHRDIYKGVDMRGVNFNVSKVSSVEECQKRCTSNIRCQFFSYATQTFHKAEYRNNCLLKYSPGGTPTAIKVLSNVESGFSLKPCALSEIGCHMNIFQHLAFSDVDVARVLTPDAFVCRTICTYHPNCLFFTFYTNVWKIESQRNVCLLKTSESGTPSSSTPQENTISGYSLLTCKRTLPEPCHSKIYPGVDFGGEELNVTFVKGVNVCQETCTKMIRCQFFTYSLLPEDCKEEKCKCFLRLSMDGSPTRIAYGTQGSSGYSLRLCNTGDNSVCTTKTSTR
Sequence of Plasma kallikrein (P03952 391-638 limits assumed): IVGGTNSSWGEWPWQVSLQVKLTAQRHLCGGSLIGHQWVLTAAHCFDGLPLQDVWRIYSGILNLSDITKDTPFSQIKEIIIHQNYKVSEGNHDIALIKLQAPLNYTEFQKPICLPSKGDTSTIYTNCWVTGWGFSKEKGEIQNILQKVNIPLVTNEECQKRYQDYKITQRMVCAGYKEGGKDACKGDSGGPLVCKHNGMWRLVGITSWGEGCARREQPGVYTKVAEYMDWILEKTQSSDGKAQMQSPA

EC50 [1]	IC50 (Plasma kallikrein) [nM]	Compound
< 100 nM	< 100	Cc1nc(N)ccc1CNC(=O)c1ccnc(Cc2ccc3ncc(C4CC4)cc3c2)c1
–	> 10000	Cc1nc2c(cc1CNC(=O)c1ccnc(Cc3ccc4ncc(Cl)cc4c3)c1)CNC2
in the range around 550 nM	–	Cc1cc(N)nc(C)c1CNC(=O)c1cc(Cc2ccc3ncc(Cl)cc3c2)nc(C(N)=O)c1
–	> 10000	Cc1cc(N)nc(C)c1CNC(=O)c1ccnc(Cc2cccc(-c3noc(=O)[nH]3)c2)c1
–	< 100	Nc1nccc2cc(CNC(=O)c3ccnc(Cc4ccc5ncc(N6CCCC6)cc5c4)c3)ccc12
< 100 nM	–	Nc1nccc2cc(CNC(=O)c3ccnc(Cc4ccc5ncc(Cl)cc5c4)c3)ccc12

Compound	EC50 [1]	IC50 (Plasma kallikrein) [nM]
Cc1cc(C(=O)NCc2c(C)cc(N)nc2C)cc(Cc2ccc3ncc(Cl)cc3c2)n1	< 100 nM	–
Cc1cc(N)nc(C)c1CNC(=O)c1ccnc(Cc2ccc3ncc(CC(F)F)cc3c2)c1	< 100 nM	< 100
